Test results taken from patent US7517849B1, “Inhibition of ABC transporters by transmembrane domain analogs” (priority 1999, dated 2009).
Read-outs that look alike come from different tables or passages of the source. Where no end group is shown, it is not given here.

How the values were obtained:
human P-gp = molecular target: T1, human P-gp (Homo sapiens, UniProt P08183); experiment: Fluorogenic substrate (rhodamine 123) accumulation/efflux assay by FACS in P-gp-expressing KB 8-5 cells; type: cell-based
T1 construct: P-gp-expressing KB 8-5 cells were trypsinized; endogenous in cells; host or cells: KB 8-5 cells
T1 sequence (P08183 whole entry): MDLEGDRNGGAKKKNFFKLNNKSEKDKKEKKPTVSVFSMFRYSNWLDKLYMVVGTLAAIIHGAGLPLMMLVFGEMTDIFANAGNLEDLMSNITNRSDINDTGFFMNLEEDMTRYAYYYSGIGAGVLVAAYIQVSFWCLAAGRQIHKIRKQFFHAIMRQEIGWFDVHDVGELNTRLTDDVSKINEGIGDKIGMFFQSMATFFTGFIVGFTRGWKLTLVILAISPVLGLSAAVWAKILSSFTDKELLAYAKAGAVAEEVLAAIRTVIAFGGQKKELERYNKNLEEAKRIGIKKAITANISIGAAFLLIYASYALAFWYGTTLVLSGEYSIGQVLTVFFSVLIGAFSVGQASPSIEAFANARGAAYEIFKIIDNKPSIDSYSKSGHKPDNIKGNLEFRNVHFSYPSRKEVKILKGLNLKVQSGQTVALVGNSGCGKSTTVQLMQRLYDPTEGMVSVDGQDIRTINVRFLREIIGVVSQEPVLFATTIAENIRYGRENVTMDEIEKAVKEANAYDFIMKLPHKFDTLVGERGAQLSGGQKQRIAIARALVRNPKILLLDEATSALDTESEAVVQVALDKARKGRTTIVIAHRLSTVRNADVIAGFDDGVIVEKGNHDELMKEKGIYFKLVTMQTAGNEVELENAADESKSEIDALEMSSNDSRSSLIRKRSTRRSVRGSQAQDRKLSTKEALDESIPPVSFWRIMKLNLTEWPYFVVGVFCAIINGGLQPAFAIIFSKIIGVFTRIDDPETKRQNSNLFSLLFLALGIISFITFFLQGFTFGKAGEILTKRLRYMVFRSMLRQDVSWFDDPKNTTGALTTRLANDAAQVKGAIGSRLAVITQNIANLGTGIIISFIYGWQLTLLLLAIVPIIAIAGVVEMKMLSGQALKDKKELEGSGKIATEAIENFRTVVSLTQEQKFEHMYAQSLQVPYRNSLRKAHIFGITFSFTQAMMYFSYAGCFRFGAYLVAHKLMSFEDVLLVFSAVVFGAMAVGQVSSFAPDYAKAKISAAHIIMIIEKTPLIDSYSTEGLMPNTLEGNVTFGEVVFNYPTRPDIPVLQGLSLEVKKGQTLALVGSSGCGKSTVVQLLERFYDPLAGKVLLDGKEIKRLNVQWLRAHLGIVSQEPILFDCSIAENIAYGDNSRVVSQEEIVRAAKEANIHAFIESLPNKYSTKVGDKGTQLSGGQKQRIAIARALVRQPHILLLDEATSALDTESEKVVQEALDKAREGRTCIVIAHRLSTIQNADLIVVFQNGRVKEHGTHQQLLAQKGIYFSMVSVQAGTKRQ
Experimental: The activity of the antagonists was tested in KB 8-5 cells which express human P-gp (described in Hrycyna et al.; Biochemistry 37:13660-73 (1998)). Analyses of P-gp transport activity were conducted by fluorogenic substrate accumulation assays utilizing fluorescence activated cell sorting (FACS) analysis, as described in Dey, S. et al., Biochemistry 38:6630-9 (1999). […] In initial screens, […] stock solutions of TM peptides in DMSO were diluted in medium to give 10-50 μM solutions. Active compounds were then tested at progressively lower concentrations.
P-gp-expressing KB 8-5 cells were trypsinized, washed with 15 mL Iscove's modified Dulbecco's medium (IMEM), supplemented with 5% fetal bovine serum (FBS), and resuspended in the same medium. […] After the incubation, the cells were pelleted by centrifugation at 200×g and incubated further in their respective rhodamine-free media (+/−TM peptide) for an additional 45 min at 37° C. in the dark. Cells were then pelleted and resuspended in 400 μL of phosphate-buffered saline without Ca+2 or Mg+2 and immediately analyzed by fluorescence activated cell sorting (FACS).
Incubations of KB 8-5 cells were carried out as described in the previous Example, except that varying concentrations of the analog called TM 6 (see Example 4, supra) were used as the TM polypeptide.

[1] = system: Human colon cancer cells HCT15; experiment: Sensitisation of HCT15 cells to adriamycin, sulforhodamine B toxicity assay; type: cell-based; settings: HCT-15, 96 h, four days, without analog
[2] = molecular target: human P-glycoprotein (product of MDR1 gene) (human, UniProt P08183 1-1280); experiment: cell-based or functional assay
human P-glycoprotein (product of MDR1 gene), sequence (P08183 whole entry S893A): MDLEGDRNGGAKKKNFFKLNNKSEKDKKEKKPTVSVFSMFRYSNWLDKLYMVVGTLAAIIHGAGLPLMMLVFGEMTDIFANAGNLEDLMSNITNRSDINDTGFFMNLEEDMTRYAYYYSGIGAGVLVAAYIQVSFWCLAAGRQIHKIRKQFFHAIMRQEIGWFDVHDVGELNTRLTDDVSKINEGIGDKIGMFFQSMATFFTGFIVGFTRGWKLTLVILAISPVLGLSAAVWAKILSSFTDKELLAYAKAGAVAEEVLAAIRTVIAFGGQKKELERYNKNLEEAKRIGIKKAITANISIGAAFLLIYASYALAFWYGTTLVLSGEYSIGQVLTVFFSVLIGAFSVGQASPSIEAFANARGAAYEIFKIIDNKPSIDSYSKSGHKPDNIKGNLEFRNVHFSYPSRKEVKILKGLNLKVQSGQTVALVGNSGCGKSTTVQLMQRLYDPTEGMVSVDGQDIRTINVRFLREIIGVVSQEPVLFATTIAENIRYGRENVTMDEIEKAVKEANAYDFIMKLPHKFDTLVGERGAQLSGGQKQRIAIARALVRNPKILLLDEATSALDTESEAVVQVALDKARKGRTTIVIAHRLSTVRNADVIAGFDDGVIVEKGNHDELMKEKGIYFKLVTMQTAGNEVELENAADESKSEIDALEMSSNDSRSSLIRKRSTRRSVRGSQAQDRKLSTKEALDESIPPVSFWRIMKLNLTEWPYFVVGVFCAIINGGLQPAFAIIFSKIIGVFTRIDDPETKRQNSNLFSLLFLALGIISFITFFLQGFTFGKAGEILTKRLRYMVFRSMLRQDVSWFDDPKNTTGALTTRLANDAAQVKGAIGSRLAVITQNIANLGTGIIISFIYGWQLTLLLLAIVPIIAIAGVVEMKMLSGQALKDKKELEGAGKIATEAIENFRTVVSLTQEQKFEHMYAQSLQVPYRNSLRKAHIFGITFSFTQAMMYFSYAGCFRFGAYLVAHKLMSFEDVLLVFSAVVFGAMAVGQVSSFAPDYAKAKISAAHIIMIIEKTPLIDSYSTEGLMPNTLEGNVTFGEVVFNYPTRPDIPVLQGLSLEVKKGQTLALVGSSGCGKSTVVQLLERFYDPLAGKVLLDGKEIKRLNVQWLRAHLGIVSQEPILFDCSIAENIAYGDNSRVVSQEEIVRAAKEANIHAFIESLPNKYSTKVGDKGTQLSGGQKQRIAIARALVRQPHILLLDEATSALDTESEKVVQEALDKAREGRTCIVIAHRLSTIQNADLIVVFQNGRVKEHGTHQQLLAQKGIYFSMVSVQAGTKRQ

In the case of “LLIYASYALAFWYGTTLVLSGEGSSG-OH [TM5 analog]”, the “activity as inhibitor of the MDR1 ABC transporter (in words)” value (from here on “activity as inhibitor”) (human P-gp) is reported as “strongest inhibitor of the MDR1 ABC transporter yet tested” and the “inhibition of rhodamine 123 efflux compared with 5 micromolar cyclosporin” value (human P-gp) is reported as “same degree of inhibition of rhodamine 123 efflux from MDR1 expressing cells as 5 micromolar cyclosporin”.

In the case of “ISIGAAFLLIYASYALAFWYGTTDD-OH [TM5 Analog 1]”, the “activity as inhibitor” value (human P-gp) is reported as “active”.

For DSGEYSIGQVLTVFFSVLIGAFSV [TM peptide 6], the “inhibition of rhodamine efflux” value (human P-gp; 5 μM TM peptide, KB 8-5 cells, 0.5 μg/mL rhodamine 123, FACS) was “inhibited rhodamine efflux”, the “activity as inhibitor” value (human P-gp; cells expressing MDR1, efflux of substrates) was “most active” and the “inhibitory power compared with cyclosporin A” value (human P-gp; positive control 5 μM cyclosporin A, KB 8-5 cells) was “not as powerful an inhibitor as cyclosporin A”. The “dose/response inhibition of P-gp” value (human P-gp; varying concentrations, KB 8-5 cells, rhodamine 123 efflux) was “inhibited P-gp in a dose dependent manner”.

`COc1cccc2c1C(=O)c1c(O)c3c(c(O)c1C2=O)C[C@@](O)(C(=O)CO)C[C@@H]3O[C@H]1C[C@H](N)[C@H](O)[C@H](C)O1` [adriamycin] showed an IC50 [1] of 150 ± 10 nM.

In the case of DSGEYSIGQVLTVFFSVLIGAFSV [TM6 analog of MDR1 (synthetic peptide), Analog 1], the “IC50 of adriamycin (sulforhodamine B toxicity assay, HCT15 cells) in the presence of 1 µM TM6” value [2] is reported as 80 nM.
